The text below walks through data of patent US20240041764A1, “Sustained-Release Oral Fosamprenavir Formulation for Treatment of Reflux” (The Medical College of Wisconsin, Inc., priority 2022, published 2024).

Structures are written as SMILES. Entries after “also recorded” stand apart in the source; their conditions may differ.

Data set [1] has as its system LPR mouse model (pepsin-mediated laryngeal damage). The data set is described as follows: in vivo LPR mouse model: mechanical injury plus laryngeal pepsin instillation, H&E histology. The conditions noted are these: for protection against pepsin-mediated laryngeal damage (histology): 0.3 mg/ml pepsin pH7, 4 weeks. From the text: Three replicate animals per treatment condition were anticipated to suffice for verification of reproducibility in each experiment without excessive use of animal life. The three mice were randomly allocated to treatment groups. No data were excluded from analysis.
Six-week-old female Jackson A/J mice (Jackson Laboratory, Bar Harbor, ME) were fed D-62 powdered Wattenberg diet, 2 g/mouse/day^95 and allowed to acclimate for one week upon arrival prior to experiments. In accord with previously established methods for modeling aerodigestive tract damage attributed to GERD and LPR,^1,95-99 mechanical injury applied during the first two weeks of a four-week treatment course was used to predispose the laryngeal mucosa to chemical injury by pepsin/acid applied throughout the four weeks. […] Briefly, anesthetized mice were suspended by upper teeth on a slanted board under an operating microscope.
In a preliminary experiment to validate the LPR mouse model (i.e. laryngeal damage by pepsin at neutral and acidic pH), 20 μl saline (solvent control) or 0.3 mg/ml pepsin at pH7.0 or 4.0 were provided to mice (n=3) by laryngeal instillation at 24, 48, and 72 hours after mechanical injury during weeks 1 and 2 (FIG. 6); laryngeal instillation without wounding (3 days/week) continued during weeks 3 and 4. […] Mice were sacrificed at conclusion of the fourth week.
To test the protective effect of HIV protease inhibitors on pepsin-mediated damage in vivo, inhibitors were delivered by aerosol or gavage concurrently with wounding (days 2, 8) and solvent/pepsin instillation (days 3-5, 9-11, 16-18 and 23-25). Aerosol or gavage was provided on days 1-5, 8-12, 15-19, and 22-25, and mice sacrificed day 26. Mice were anesthetized with isoflurane (3% in 2.5LPM, 3-5 minutes prior to procedures) as opposed to Avertin due to frequency. […] Aerosol was generated as described^100. Briefly, a 10 ml suspension of drug in ethanol was placed in the baffle, such that the concentration would remain constant at the equilibrium solubility. Droplets of ethanol containing dissolved drug were generated by an ultrasonic atomizer (nominal frequency 1.7 MHz) and entrained by air at a flow rate of 0.5 LPM with a custom-built glass baffle (UMN Department of Chemistry Glass Shop). The aerosol cloud was then passed through a cylindrical drying column containing an annular ring of charcoal. The ethanol was removed and the emanating dry aerosol particles of pure drug were then directed into the exposure chamber. The mass deposited on filters was measured gravimetrically and total output rate (mg/min) was determined. The aerosol concentration (mass/volume of air) was calculated by dividing the total output rate by the air flow rate (0.5 LPM). The inhaled mass of drug (Minh) for each mouse was defined as Minh=[Aerosol]*RMV*t, where Aerosol is the aerosol concentration of drug, RMV is the respiratory minute volume of the mice (0.025 L/min), and t is the aerosol exposure time. […] Actual mass deposited was not determined but anticipated to be 10% of inhaled mass (the deposition fraction of […] aerosol particles in mice).
Tissues were collected, fixed in paraformaldehyde, embedded in paraffin and 4 um sections stained with hematoxylin and eosin (H&E) via automated stainer. Slides were reviewed by a board-certified pathologist (JM) blinded to treatment groups.

The conditions of data set [2]: prodrug relative to amprenavir; cited from earlier work.
The conditions of data set [3]: mice; cited from earlier work.
For data set [4] the following is noted: in vivo; cited from earlier work.
Data set [5] can be described thus: solubility when preparing co-crystallization solutions. The data set is classed as physicochemical. The conditions noted are these: saturated solution in DMSO for co-crystallization; CryoSol SM2 chosen instead. The protocol: Supernatant of saturated saquinivar solution in SM2 was combined with pepsin at 5% f.c. (v/v). Crystallization conditions were optimized by screening 200 mg/ml pepsin in the Salt RX screen (Hampton Research, Viejo, CA). […] Diffraction quality crystals (triangular bi-pyramids, approximately 200×100×100 μm) formed after 2-7 days from hanging drops of 2 ul pepsin (180-210 mg/ml) and 1 ul microseed solution serially diluted 10-100× above 3-4M ammonium chloride and 0.1M sodium acetate trihydrate pH4.6. Crystals were cryoprotected by 30% glucose, 5M ammonium chloride and 0.1 M sodium acetate trihydrate pH4.6 and plunged in liquid nitrogen. Co-crystallization with saquinavir was performed in 0.1M acetic acid rather than sodium acetate trihydrate as this permitted large crystal formation without a microseed; crystals were cryoprotected by 30% w/v glucose, 5M ammonium chloride and 0.1 M sodium acetate trihydrate pH 4.6 and plunged in liquid nitrogen.

The next data set concerns the target T1, porcine pepsin (Sus scrofa, UniProt P00791).
T1 construct: purchased Worthington Biochemical Corporation
The data set is described as follows: peptic activity assay, fluorescence polarization with casein-Alexa647. The format is biochemical. The protocol: To examine whether HIV protease inhibitors bound and inhibited pepsin, we developed assays based on fluorescence polarization which measures size-dependent molecular rotation thereby permitting detection of degradation, association and dissociation events^80. A competitive binding assay was designed employing pepstatin, an inhibitor of sub-nanomolar affinity^81. Pepstatin-Alexa647 was synthesized by dissolving 1 mg pepstatin A (Sigma-Aldrich) in a 50:50 mixture of dimethylformamide (DMF) and dimethylsulfoxide (DMS) followed by the addition of N,N,N′,N′-Tetramethyl-O—(N-succinimidyl)uronium tetrafluoroborate (0.6 mg) and trimethylamine (10 μL) DMF. The mixture was stirred for 1 hour, after which 1 mg Alexa Fluor 647 Cadaverine, Disodium Salt (ThermoFisher Scientific) was added. After 2 hours, the solvents were evaporated under high vacuum (35° C.) and residue partially dissolved in 10% methanol and transferred onto a C18 cartridge (Waters Corporation, Milford, MA). Increasing percentages of methanol were used for the elution. […] An enzymatic inhibition assay was designed using casein substrate.^82 Bovine alpha casein (Sigma-Aldrich, St. Louis, MO) was labeled with Alexa Fluor 647 Carboxylic Acid, Succinimidyl Ester (ThermoFisher Scientific, Waltham, MA) as described.^82 Briefly, the two were combined at 2.5 ug/mg label to protein ratio in 0.1M sodium bicarbonate for 15 minutes and labeled casein was separated from unbound label in a Sephadex G-25 (Sigma-Aldrich) column comprised of 90×5 mm packed beads in a glass Pasteur pipette, eluted with dPBS pH7.4 (ThermoFisher Scientific). The fast-moving band (casein-bound fluorophore) was collected in ˜0.4 ml volume. Concentration of resultant probe (casein-Alexa647 in PBS-azide) was estimated via spectrophotometry using Beer's law (Implen Nanophotometer, Implen, Inc. Westlake Village, CA).
(§1) Assays were optimized using ranges of 0.3-1000 μM unlabeled pepstatin, 100-500 nM pepstatin-Alexa647 or casein-Alexa647 probe, 0.003-3 U/μl porcine pepsin (Worthington Biochemical Corporation, Lakewood, NJ), and 5-37.5% DMSO (HIV protease inhibitor diluent) in 0.1 M HCl, pH 1 with 0.01% v/v Tween-20 in 20 μl volumes in 384-well black optical plates (Nunc, Roskilde, DK) and read on a BioTek Cytation 5 (BioTek Instruments, Winooski, VT) with far red FP filter cube (excitation/emission 620/680 nm). Unlabeled pepstatin dose-response curves were used to ensure that the assays were responsive to pepsin inhibition. […] Assays were performed twice with triplicate reactions read for five minutes and mean mP plotted against probe concentration (binding assay) or read at <2 minutes intervals over 30 minutes with mean mP of plotted over time (activity assay). Half maximal inhibitory concentration (IC50) of inhibitors were calculated from kinetic traces analyzed using an online tool (https://icekat.herokuapp.com/icekat)^83. mP was normalized to blank (absent inhibitor) to derive percent bound or activity.
In general terms: In fluorescence polarisation assays a small probe gives low polarisation when free and higher when bound to something large.

The target in the next data set is T2, porcine pepsin A (Sus scrofa, UniProt P00791).
T2 construct: purchased Worthington Biochemical Corporation
T2 sequence (P00791 60-385): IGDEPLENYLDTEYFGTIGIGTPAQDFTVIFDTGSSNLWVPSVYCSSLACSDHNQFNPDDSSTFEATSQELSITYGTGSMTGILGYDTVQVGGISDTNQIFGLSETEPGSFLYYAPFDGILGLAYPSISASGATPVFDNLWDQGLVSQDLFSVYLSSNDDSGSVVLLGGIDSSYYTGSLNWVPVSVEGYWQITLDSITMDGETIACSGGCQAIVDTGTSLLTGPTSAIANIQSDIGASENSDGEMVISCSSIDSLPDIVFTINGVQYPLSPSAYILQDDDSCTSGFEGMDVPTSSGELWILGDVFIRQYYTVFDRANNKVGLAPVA
The data set is described as follows: competitive binding assay, fluorescence polarization with pepstatin-Alexa647. The conditions noted are these: 100 nM probe, 0.03 U/ul porcine pepsin A, 37.5% DMSO, 0.1 M HCl pH 1. The protocol:
To examine whether HIV protease inhibitors bound and inhibited pepsin, we developed assays based on fluorescence polarization which measures size-dependent molecular rotation thereby permitting detection of degradation, association and dissociation events^80. A competitive binding assay was designed employing pepstatin, an inhibitor of sub-nanomolar affinity^81. Pepstatin-Alexa647 was synthesized by dissolving 1 mg pepstatin A (Sigma-Aldrich) in a 50:50 mixture of dimethylformamide (DMF) and dimethylsulfoxide (DMS) followed by the addition of N,N,N′,N′-Tetramethyl-O—(N-succinimidyl)uronium tetrafluoroborate (0.6 mg) and trimethylamine (10 μL) DMF. The mixture was stirred for 1 hour, after which 1 mg Alexa Fluor 647 Cadaverine, Disodium Salt (ThermoFisher Scientific) was added. After 2 hours, the solvents were evaporated under high vacuum (35° C.) and residue partially dissolved in 10% methanol and transferred onto a C18 cartridge (Waters Corporation, Milford, MA). Increasing percentages of methanol were used for the elution. Pepstatin-Alexa647 eluted at 45% methanol. An enzymatic inhibition assay was designed using casein substrate.^82 Bovine alpha casein (Sigma-Aldrich, St. Louis, MO) was labeled with Alexa Fluor 647 Carboxylic Acid, Succinimidyl Ester (ThermoFisher Scientific, Waltham, MA) as described.^82 Briefly, the two were combined at 2.5 ug/mg label to protein ratio in 0.1M sodium bicarbonate for 15 minutes and labeled casein was separated from unbound label in a Sephadex G-25 (Sigma-Aldrich) column comprised of 90×5 mm packed beads in a glass Pasteur pipette, eluted with dPBS pH7.4 (ThermoFisher Scientific). The fast-moving band (casein-bound fluorophore) was collected in ˜0.4 ml volume. […]
as §1, with “nm).” for “nm). Unlabeled pepstatin dose-response curves were used to ensure that the assays were responsive to pepsin inhibition.”

T1 sequence (P00791 60-385): as above

In the case of `CC(C)CN(C[C@@H](OP(=O)(O)O)[C@H](Cc1ccccc1)NC(=O)O[C@H]1CCOC1)S(=O)(=O)c1ccc(N)cc1` [fosamprenavir, [(3S)-oxolan-3-yl] N-[(2S,3R)-4-[(4-aminophenyl)sulfonyl-(2-methylpropyl)amino]-1-phenyl-3-phosphonooxybutan-2-yl]carbamate], the “laryngeal histology, drug with saline (solvent), no pepsin” value in data set [1] (aerosol) was “normal histology”; in data set [1] (gavage), “normal histology”; in data set [1] (gavage, listed as Lexiva) it was “Normal-appearing respiratory epithelium”. Besides, the “protection against pepsin-mediated laryngeal damage (histology)” value in data set [1] (aerosol, inhaled mass 0.93 mg/kg/day fosamprenavir, 12 mg/kg/day darunavir) is on record as “prevented pepsin-mediated laryngeal injury; also recorded: protected against pepsin-mediated laryngeal damage”; in data set [1] (gavage, 20 mg/kg/day fosamprenavir (Lexiva), 8.6 mg/kg/day darunavir (Prezista)), “prevented pepsin-mediated laryngeal damage”; in data set [1] (gavage, 20 mg/kg/day fosamprenavir (Lexiva), 8.6 mg/kg/day darunavir (Prezista), listed as Fosamprenavir) it was “prevented pepsin-mediated laryngeal damage; also recorded: protected against pepsin-mediated laryngeal damage”; in data set [1] (gavage, 20 mg/kg/day fosamprenavir (Lexiva), 8.6 mg/kg/day darunavir (Prezista), listed as Lexiva), “prevents pepsin-mediated airway epithelial damage”. Besides, in data set [2], the bioavailability entry is on record as “improved bioavailability”. For the same molecule, in data set [3], the pharmacokinetics result is on record as “excellent pharmacokinetics”. The tolerability entry in data set [4] is “favorable tolerability”.

Regarding `CC(C)(C)NC(=O)[C@@H]1C[C@@H]2CCCC[C@@H]2CN1C[C@@H](O)[C@H](Cc1ccccc1)NC(=O)[C@H](CC(N)=O)NC(=O)c1ccc2ccccc2n1` [saquinavir, (2S)-N-[(2S,3R)-4-[(3S,4aS,8aS)-3-(tert-butylcarbamoyl)-3,4,4a,5,6,7,8,8a-octahydro-1H-isoquinolin-2-yl]-3-hydroxy-1-phenylbutan-2-yl]-2-(quinoline-2-carbonylamino)butanediamide], in data set [5], the solubility entry is listed as “poor solubility”. At porcine pepsin (200 nM probe, 0.01 U/μL pepsin, 5% DMSO, 0.1 M HCl pH 1), the “inhibited pepsin (peptic activity)” value was “low micromolar”. Besides, at porcine pepsin (in vitro binding and inhibition assays, IC50 from kinetic traces), the IC50 for pepsin result is “low micromolar range”. The “bound pepsin (competitive binding)” value on porcine pepsin A is “low micromolar”. The side effects entry in data set [4] is “QT prolongation, heart block, high blood lipids and liver problems”.
